Like-named read-outs stand apart in the source and are kept apart here. Starred links: 1 amine or outer side, 2 acyl side, 3 side chain; linkers in the order of their positions; H or OH if unused. Positions of bridges follow the written chain, without caps; N, C: chain ends. Non-standard residues stand in square brackets, D forms with d. Residues, ends and D or L forms follow the SMILES beside them. Groups on a side chain read outwards from the residue. *: point of attachment. Ala(1-CH2CO2H-4-piperidyl) = N[C@@H](CC1CCN(CC(=O)O)CC1)C(=O)O; Ala(piperidin-4-yl) = O=C([C@H](CC1CCN([*:3])CC1)N[*:1])[*:2]; DOTA = O=C(O)CN1CCN(CC(=O)O)CCN(CC(=O)*)CCN(CC(=O)O)CC1; Phe(4-NHCONH2) = NC(=O)Nc1ccc(C[C@H](N)C(=O)O)cc1; Trp(5-F) = N[C@@H](Cc1c[nH]c2ccc(F)cc12)C(=O)O; X1 = C[C@@H](c1ccccc1)[C@H](N[*:1])C(=O)[*:2]; γGlu = O=C(O)[C@H](CCC(=O)[*:2])N[*:1]; 1Nal = N[C@@H](Cc1cccc2ccccc12)C(=O)O; Ala(4-THP) = N[C@@H](CC1CCOCC1)C(=O)O; Val(3-OH) = CC(C)(O)[C@H](N)C(=O)O; 4Pal = N[C@@H](Cc1ccncc1)C(=O)O; PEG4 = NCCOCCOCCOCCOCCC(=O)O; Tle = CC(C)(C)[C@H](N)C(=O)O; hLeu = CC(C)CC[C@H](N)C(=O)O; Dab = NCC[C@H](N)C(=O)O
How the values were obtained:
Calu-6 cell line [1] = experiment: Cell associated (bound) fraction of [177Lu]Lu-labeled peptide in Calu-6 cells; assay type: cell-based, Human; details: 1 hour, 37° C.
Outline: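 Peptide conjugate was labelled with [177Lu]LuCl3 in ammonium acetate pH ~5 at 80 °C for 17-20 min, with purity checked by RP-HPLC. Calu-6 suspensions (5 million cells/mL in 1% PBSA) were incubated with 0.8 μCi for 1 h at 37 °C. Cell pellets were gamma-counted after two cold PBS/BSA washes, giving the bound fraction against the unbound supernatant plus washes.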

Calu-6 cell line [2] = experiment: Net internalization of [177Lu]Lu-labeled peptide in Calu-6 cells; assay type: cell-based, Human; details: 1 hour, 37° C., glycine pH 2.5 acid wash
Outline: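 Peptide conjugate labeled with [177Lu]LuCl3 at pH ~5, 80 °C, 17–20 min, and purity checked by RP-HPLC. B7-H3-expressing human Calu-6 lung cancer cells at 5 million cells/mL in 1% PBSA. Internalized fraction: counts left after two 3 min 50 mM glycine pH 2.5 washes and NaOH lysis, gamma counted against bound fraction.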

human 4lg B7-H3 = biological target: T1, human 4lg B7-H3 (Homo sapiens, UniProt Q5ZPR3); experiment: Affinity determination by surface plasmon resonance (SPR) to 4Ig B7-H3; details: 4Ig B7-H3
T1 sequence (Q5ZPR3 29-534): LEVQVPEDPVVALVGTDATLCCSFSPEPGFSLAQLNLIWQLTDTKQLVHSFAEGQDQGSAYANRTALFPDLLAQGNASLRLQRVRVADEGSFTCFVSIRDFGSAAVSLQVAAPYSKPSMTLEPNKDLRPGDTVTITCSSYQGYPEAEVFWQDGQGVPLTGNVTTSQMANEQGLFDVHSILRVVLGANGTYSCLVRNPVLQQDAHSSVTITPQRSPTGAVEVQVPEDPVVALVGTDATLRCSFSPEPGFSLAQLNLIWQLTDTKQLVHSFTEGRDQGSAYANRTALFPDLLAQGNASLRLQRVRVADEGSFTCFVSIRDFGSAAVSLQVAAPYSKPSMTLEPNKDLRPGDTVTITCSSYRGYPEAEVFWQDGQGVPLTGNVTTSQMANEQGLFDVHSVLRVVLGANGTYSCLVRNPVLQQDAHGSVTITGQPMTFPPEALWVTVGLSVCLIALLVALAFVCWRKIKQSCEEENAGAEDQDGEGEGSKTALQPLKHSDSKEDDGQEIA

[3] = SPR KD—25° C., 25° C. flow cell temperature
[4] = read-out: SPR KD—37° C., 37° C. flow cell temperature

| SMILES | % cell associated fraction (Calu-6 cell line [1]) | % net internalization (Calu-6 cell line [2]) | Kd (human 4lg B7-H3; [3]) [nM] | Kd (human 4lg B7-H3; SPR KD—37° C., 37° C. flow cell temperature) [nM] | Kd (human 4lg B7-H3; [4]) [nM] |
| --- | --- | --- | --- | --- | --- |
| CC(=O)N[C@@H](CCC(C)C)C(=O)N[C@@H](Cc1ccc(O)cc1)C(=O)N[C@H]1CSSC[C@@H](C(=O)N[C@@H](Cc2cccc3ccccc23)C(=O)N[C@@H](Cc2ccccc2)C(=O)N2CCC[C@H]2C(N)=O)NC(=O)[C@H](Cc2ccc(O)cc2)NC(=O)[C@H](C(C)C)NC(=O)[C@H](CC(=O)O)NC(=O)[C@H](Cc2ccncc2)NC(=O)[C@H](CCCCNC(=O)CC[C@H](NC(=O)CN2CCN(CC(=O)O)CCN(CC(=O)O)CCN(CC(=O)O)CC2)C(=O)O)NC(=O)CNC(=O)[C@H](C(C)(C)C)NC1=O [compound 252, Ac-hLeu-Y-C-Tbg-G-Lys(gE-DOTA)-4PyA-D-V-Y-C-1Nal-F-Pro-CONH2] (Ac-[hLeu]YC[Tle]GK([γGlu-DOTA])[4Pal]DVYC[1Nal]FP-NH2; disulfide 3-11) | B (25<%≤50) | A (%≤25) | 1 to 10 |  |  |
| CC(=O)N[C@@H](CCC(C)C)C(=O)N[C@@H](Cc1ccc(O)cc1)C(=O)N[C@H]1CSSC[C@@H](C(=O)N[C@@H](Cc2cccc3ccccc23)C(=O)N[C@@H](Cc2ccccc2)C(=O)N2CCC[C@H]2C(N)=O)NC(=O)[C@H](Cc2ccc(O)cc2)NC(=O)[C@H](C(C)C)NC(=O)[C@H](CC(=O)O)NC(=O)[C@H](Cc2ccncc2)NC(=O)[C@H](CCCCNC(=O)CC[C@H](NC(=O)CC[C@H](NC(=O)CN2CCN(CC(=O)O)CCN(CC(=O)O)CCN(CC(=O)O)CC2)C(=O)O)C(=O)O)NC(=O)CNC(=O)[C@H](C(C)(C)C)NC1=O [compound 253, Ac-hLeu-Y-C-Tbg-G-Lys(gE-gE-DOTA)-4PyA-D-V-Y-C-1Nal-F-Pro-CONH2] (Ac-[hLeu]YC[Tle]GK([γGlu-γGlu-DOTA])[4Pal]DVYC[1Nal]FP-NH2; disulfide 3-11) | A (%≤25) | A (%≤25) | 1 to 10 |  |  |
| CC(=O)N[C@@H](CCC(C)C)C(=O)N[C@@H](Cc1ccc(O)cc1)C(=O)N[C@H]1CSSC[C@@H](C(=O)N[C@@H](Cc2c[nH]c3ccc(F)cc23)C(=O)N[C@@H](Cc2ccccc2)C(=O)N[C@H](C(=O)N[C@H](CCCCNC(=O)CN2CCN(CC(=O)O)CCN(CC(=O)O)CCN(CC(=O)O)CC2)C(=O)O)C(C)(C)O)NC(=O)[C@H](Cc2ccc(O)cc2)NC(=O)[C@H](C(C)C)NC(=O)[C@H](CC(=O)O)NC(=O)[C@H](CC2CCOCC2)NC(=O)[C@H](CCN)NC(=O)CNC(=O)[C@H](C(C)(C)C)NC1=O [compound 371, Ac-hLeu-Y-C-Tbg-G-Dab-ThpA-D-V-Y-C-5FW-F-hydroxyVal-dLys(DOTA)-COOH] (Ac-[hLeu]YC[Tle]G[Dab][Ala(4-THP)]DVYC[Trp(5-F)]F[Val(3-OH)][dK](DOTA)-OH; disulfide 3-11) | B (25<%≤50) | A (%≤25) |  | < 1 |  |
| CC(=O)N[C@@H](CCC(C)C)C(=O)N[C@@H](Cc1ccc(O)cc1)C(=O)N[C@H]1CSSC[C@@H](C(=O)N[C@@H](Cc2c[nH]c3ccc(F)cc23)C(=O)N[C@H](C(=O)N[C@H](C(=O)N[C@H](CCCCNC(=O)CN2CCN(CC(=O)O)CCN(CC(=O)O)CCN(CC(=O)O)CC2)C(=O)O)C(C)(C)O)[C@@H](C)c2ccccc2)NC(=O)[C@H](Cc2ccc(NC(N)=O)cc2)NC(=O)[C@H](C(C)C)NC(=O)[C@H](CC(=O)O)NC(=O)[C@H](CC2CCOCC2)NC(=O)[C@H](CC2CCN(CC(=O)O)CC2)NC(=O)CNC(=O)[C@H](C(C)(C)C)NC1=O [compound 499, Ac-hLeu-Y-C-Tbg-G-Pip(CH2COOH)Ala-ThpA-D-V-Aph(Cbm)-C-5FW-[(2S, 3S)beta-Me-Phe]-hydroxyVal-dLys(DOTA)-COOH] (Ac-[hLeu]YC[Tle]G[Ala(1-CH2CO2H-4-piperidyl)][Ala(4-THP)]DV[Phe(4-NHCONH2)]C[Trp(5-F)][X1][Val(3-OH)][dK](DOTA)-OH; disulfide 3-11) | C (%>50) | A (%≤25) |  |  | < 1 |
| CC(=O)N[C@@H](CCC(C)C)C(=O)N[C@@H](Cc1ccc(O)cc1)C(=O)N[C@H]1CSSC[C@@H](C(=O)N[C@@H](Cc2c[nH]c3ccc(F)cc23)C(=O)N[C@@H](Cc2ccccc2)C(=O)N[C@H](C(=O)N[C@H](CCCCNC(=O)CCOCCOCCOCCOCCNC(=O)CN2CCN(CC(=O)O)CCN(CC(=O)O)CCN(CC(=O)O)CC2)C(=O)O)C(C)(C)O)NC(=O)[C@H](Cc2ccc(O)cc2)NC(=O)[C@H](C(C)C)NC(=O)[C@H](CC(=O)O)NC(=O)[C@H](CC2CCOCC2)NC(=O)[C@H](CC2CCNCC2)NC(=O)CNC(=O)[C@H](C(C)(C)C)NC1=O [compound 465, Ac-hLeu-Y-C-Tbg-G-PipAla-ThpA-D-V-Y-C-5FW-F-hydroxyVal-dLys(PEG4-DOTA)-COOH] (Ac-[hLeu]YC[Tle]G[Ala(piperidin-4-yl)][Ala(4-THP)]DVYC[Trp(5-F)]F[Val(3-OH)][dK]([PEG4-DOTA])-OH; disulfide 3-11) | B (25<%≤50) | A (%≤25) |  |  | < 1 |
| CC(=O)N[C@@H](CCC(C)C)C(=O)N[C@@H](Cc1ccc(O)cc1)C(=O)N[C@H]1CSSC[C@@H](C(=O)N[C@@H](Cc2c[nH]c3ccc(F)cc23)C(=O)N[C@H](C(=O)N[C@H](C(=O)N[C@H](CCCCNC(=O)[C@@H](CCC(=O)O)NC(=O)CN2CCN(CC(=O)O)CCN(CC(=O)O)CCN(CC(=O)O)CC2)C(=O)O)C(C)(C)O)[C@@H](C)c2ccccc2)NC(=O)[C@H](Cc2ccc(O)cc2)NC(=O)[C@H](C(C)C)NC(=O)[C@H](CC(=O)O)NC(=O)[C@H](CC2CCOCC2)NC(=O)[C@H](CC2CCNCC2)NC(=O)CNC(=O)[C@H](C(C)(C)C)NC1=O [compound 501, Ac-hLeu-Y-C-Tbg-G-PipAla-ThpA-D-V-Y-C-5FW-[(2S, 3S)beta-Me-Phe]-hydroxyVal-dLys(dGlu-DOTA)-COOH] (Ac-[hLeu]YC[Tle]G[Ala(piperidin-4-yl)][Ala(4-THP)]DVYC[Trp(5-F)][X1][Val(3-OH)][dK]([dE-DOTA])-OH; disulfide 3-11) | C (%>50) | B (25<%≤50) |  |  | < 1 |
| CC[C@H](C)[C@@H]1NC(=O)[C@@H](NC(=O)[C@H](Cc2ccc(O)cc2)NC(=O)[C@H](CCC(C)C)NC(C)=O)CSSC[C@@H](C(=O)N[C@@H](Cc2c[nH]c3ccc(F)cc23)C(=O)N[C@@H](Cc2ccccc2)C(=O)N[C@H](C(N)=O)C(C)(C)O)NC(=O)[C@H](Cc2ccc(O)cc2)NC(=O)[C@H](C(C)C)NC(=O)[C@H](CC(=O)O)NC(=O)[C@H](CC2CCNCC2)NC(=O)[C@H](CCCCNC(=O)CN2CCN(CC(=O)O)CCN(CC(=O)O)CCN(CC(=O)O)CC2)NC(=O)CNC1=O [compound 203, Ac-hLeu-Y-C-Ile-G-Lys(DOTA)-PipAla-D-V-Y-C-5FW-F-hydroxyVal-CONH2] (Ac-[hLeu]YCIGK(DOTA)[Ala(piperidin-4-yl)]DVYC[Trp(5-F)]F[Val(3-OH)]-NH2; disulfide 3-11) | B (25<%≤50) | A (%≤25) | < 1 |  |  |

From patent US20250296959A1, “B7-H3 TARGETING PEPTIDES AND CONSTRUCTS THEREOF” (Mariana Oncology Inc., priority 2024, published 2025)
